In ChEMBL document CHEMBL2169754, “Imidazo[1,2-a]pyridines That Directly Interact with Hepatitis C NS4B: Initial Preclinical Characterization” (ACS Med Chem Lett, 2012):

Key:
[1] = Solubility of the compound; format: physicochemical
[2] = test system: Hepatitis C virus; assay: Antiviral activity against wild type HCV genotype 1a infected in human HuH7 cells after 48 hrs by luciferase reporter gene assay; format: functional, organism-based, Hepacivirus hominis; conditions: subtype 1a, Huh-7, 48 h
[3] = test system: Hepatitis C virus; assay: Antiviral activity against wild type HCV genotype 1b infected in human HuH7 cells after 48 hrs by luciferase reporter gene assay; format: functional, organism-based, Hepacivirus hominis; conditions: Huh-7, 48 h
[4] = test system: Hepatitis C virus; assay: Displacement of [3H]-3-(1-(3-chloro-6-isopropyl-8-(trifluoromethyl)imidazo[1,2-a]pyridine-2-carbonyl)piperidin-4-yl)oxazolidin-2-one from HCV genotype 1b His6-tagged NS4B expressed in baculovirus infected Sf9 cells after overnight incubation; set-up: species or system Hepatitis C virus subtype 1b
[5] = AUC (0 to 24 hrs) in Sprague-Dawley rat at 5 mg/kg, po; format: ADME, organism-based; set-up: time < 24 hr, dose 5 mg/kg, route oral; conditions: plasma
[6] = Oral bioavailability in Sprague-Dawley rat at 5 mg/kg; format: ADME, organism-based; conditions: in vivo
[7] = Half life in Sprague-Dawley rat at 5 mg/kg, po; format: ADME, organism-based; set-up: dose 5 mg/kg, route oral; conditions: in vivo
[8] = Clearance in Sprague-Dawley rat at 1 mg/kg, iv; format: ADME, organism-based; set-up: dose 1 mg/kg, route intravenous; conditions: in vivo
[9] = Volume of distribution at steady state in Sprague-Dawley rat at 1 mg/kg, iv; format: ADME, organism-based; set-up: dose 1 mg/kg, route intravenous; conditions: in vivo, read-out: Vdss
[10] = target: Cytochrome P450 3A4 (Homo sapiens, UniProt P08684); assay: Inhibition of CYP3A4 in human liver microsomes after 7 mins by LC/MS/MS analysis; format: ADME, Microsome
[11] = target: Cytochrome P450 2D6 (Homo sapiens, UniProt P10635); assay: Inhibition of CYP2D6 in human liver microsomes after 10 mins by LC/MS/MS analysis; format: ADME, Microsome
[12] = target: Cytochrome P450 2C19 (Homo sapiens, UniProt P33261); assay: Inhibition of CYP2C19 in human liver microsomes after 10 mins by LC/MS/MS analysis; format: ADME, Microsome
[13] = target: T1, Cytochrome P450 1A2 (Homo sapiens, UniProt P05177); assay: Inhibition of CYP1A2 in human liver microsomes after 10 mins by LC/MS/MS analysis; format: ADME, Microsome
T1 sequence (P05177 whole entry): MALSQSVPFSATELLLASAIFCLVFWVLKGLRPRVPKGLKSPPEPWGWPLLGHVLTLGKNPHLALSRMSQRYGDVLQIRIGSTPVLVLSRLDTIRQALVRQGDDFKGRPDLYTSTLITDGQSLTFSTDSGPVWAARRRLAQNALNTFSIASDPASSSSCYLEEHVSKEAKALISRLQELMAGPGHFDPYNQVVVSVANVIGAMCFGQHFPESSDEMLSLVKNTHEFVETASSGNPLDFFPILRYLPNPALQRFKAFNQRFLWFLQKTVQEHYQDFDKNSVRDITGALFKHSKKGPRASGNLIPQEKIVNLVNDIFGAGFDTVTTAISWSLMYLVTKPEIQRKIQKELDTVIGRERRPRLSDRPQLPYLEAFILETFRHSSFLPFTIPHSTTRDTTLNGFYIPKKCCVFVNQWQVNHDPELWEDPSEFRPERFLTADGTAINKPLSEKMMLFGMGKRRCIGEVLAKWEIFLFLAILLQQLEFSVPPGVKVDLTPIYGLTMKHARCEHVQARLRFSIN

[14] = target: Cytochrome P450 2C9 (Homo sapiens, UniProt P11712); assay: Inhibition of CYP2C9 in human liver microsomes after 10 mins by LC/MS/MS analysis; format: ADME, Microsome
[15] = test system: Liver microsomes; assay: Drug metabolism in rat liver microsomes assessed as reactive metabolite formation at 10 uM after 30 mins by glutathione trapping assay; format: ADME, Microsome; conditions: 0.5 h
[16] = test system: Liver microsomes; assay: Drug metabolism in human liver microsomes assessed as reactive metabolite formation at 10 uM after 30 mins by glutathione trapping assay; format: ADME, Microsome; conditions: 0.5 h
[17] = Oral bioavailability in beagle dog at 5 mg/kg; format: ADME, organism-based, Canis lupus familiaris; conditions: in vivo
[18] = AUC (0 to 24 hrs) in beagle dog at 5 mg/kg, po; format: ADME, organism-based, Canis lupus familiaris; set-up: time < 24 hr, dose 5 mg/kg, route oral; conditions: plasma
[19] = Volume of distribution at steady state in beagle dog at 1 mg/kg, iv; format: ADME, organism-based, Canis lupus familiaris; set-up: dose 1 mg/kg, route intravenous; conditions: in vivo, read-out: Vdss
[20] = Half life in beagle dog at 5 mg/kg, po; format: ADME, organism-based, Canis lupus familiaris; set-up: dose 5 mg/kg, route oral; conditions: in vivo
[21] = Clearance in beagle dog at 1 mg/kg, iv; format: ADME, organism-based, Canis lupus familiaris; set-up: dose 1 mg/kg, route intravenous; conditions: in vivo
[22] = test system: Hepatitis C virus; assay: Ratio of EC50 for HCV genotype 1b expressing NS4B H94N mutant to EC50 for wild type HCV genotype 1b; format: functional, Hepacivirus hominis
[23] = test system: Hepatitis C virus; assay: Ratio of EC50 for HCV genotype 1b expressing NS4B V105N mutant to EC50 for wild type HCV genotype 1b; format: functional, Hepacivirus hominis
[24] = test system: Hepatitis C virus; assay: Antiviral activity against HCV genotype 1b expressing NS5A L31V mutant transiently infected in human HuH7 cells after 48 hrs by luciferase reporter gene assay; format: functional, organism-based, Hepacivirus hominis; conditions: Huh-7, 48 h
[25] = test system: Hepatitis C virus; assay: Antiviral activity against HCV genotype 1b expressing NS5B M414T mutant transiently infected in human HuH7 cells after 48 hrs by luciferase reporter gene assay; format: functional, organism-based, Hepacivirus hominis; conditions: Huh-7, 48 h
[26] = test system: Hepatitis C virus; assay: Antiviral activity against HCV genotype 1b expressing NS3 A156T mutant transiently infected in human HuH7 cells after 48 hrs by luciferase reporter gene assay; format: functional, organism-based, Hepacivirus hominis; conditions: Huh-7, 48 h
[27] = test system: Hepatitis C virus; assay: Antiviral activity against HCV genotype 1b expressing NS4B F98L mutant transiently infected in human HuH7 cells after 48 hrs by luciferase reporter gene assay; format: functional, organism-based, Hepacivirus hominis; conditions: Huh-7, 48 h
[28] = test system: Hepatitis C virus; assay: Antiviral activity against HCV genotype 1b expressing NS4B V105L mutant transiently infected in human HuH7 cells after 48 hrs by luciferase reporter gene assay; format: functional, organism-based, Hepacivirus hominis; conditions: Huh-7, 48 h
[29] = test system: Hepatitis C virus; assay: Antiviral activity against HCV genotype 1b expressing NS4B H94R mutant transiently infected in human HuH7 cells after 48 hrs by luciferase reporter gene assay; format: functional, organism-based, Hepacivirus hominis; conditions: Huh-7, 48 h
[30] = test system: Hepatitis C virus; assay: Antiviral activity against HCV genotype 1b expressing NS4B V105M mutant stably infected in human HuH7 cells after 48 hrs by luciferase reporter gene assay; format: functional, organism-based, Hepacivirus hominis; conditions: Huh-7, 48 h
[31] = test system: Hepatitis C virus; assay: Antiviral activity against HCV genotype 1b expressing NS4B H94N mutant stably infected in human HuH7 cells after 48 hrs by luciferase reporter gene assay; format: functional, organism-based, Hepacivirus hominis; conditions: Huh-7, 48 h
[32] = test system: Hepatitis C virus; assay: Binding affinity to HCV genotype 1b His6-tagged NS4B expressed in baculovirus infected Sf9 cells after overnight incubation; conditions: Hepatitis C virus subtype 1b, tested as the 3H-labelled form

Sequence of Cytochrome P450 2C19 (P33261 whole entry): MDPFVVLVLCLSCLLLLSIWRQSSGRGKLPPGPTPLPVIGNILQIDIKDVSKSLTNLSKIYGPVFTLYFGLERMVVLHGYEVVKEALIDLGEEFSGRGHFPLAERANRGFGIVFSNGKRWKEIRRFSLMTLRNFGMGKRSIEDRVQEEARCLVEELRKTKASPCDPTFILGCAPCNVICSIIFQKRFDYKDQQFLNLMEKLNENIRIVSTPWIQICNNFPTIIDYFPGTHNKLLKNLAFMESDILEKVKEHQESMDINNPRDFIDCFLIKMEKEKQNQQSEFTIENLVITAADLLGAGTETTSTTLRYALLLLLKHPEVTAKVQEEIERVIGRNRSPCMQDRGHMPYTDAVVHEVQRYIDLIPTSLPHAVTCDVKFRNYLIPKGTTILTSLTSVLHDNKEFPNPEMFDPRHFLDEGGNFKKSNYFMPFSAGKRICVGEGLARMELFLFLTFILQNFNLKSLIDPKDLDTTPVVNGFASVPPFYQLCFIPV
Sequence of Cytochrome P450 2C9 (P11712 whole entry): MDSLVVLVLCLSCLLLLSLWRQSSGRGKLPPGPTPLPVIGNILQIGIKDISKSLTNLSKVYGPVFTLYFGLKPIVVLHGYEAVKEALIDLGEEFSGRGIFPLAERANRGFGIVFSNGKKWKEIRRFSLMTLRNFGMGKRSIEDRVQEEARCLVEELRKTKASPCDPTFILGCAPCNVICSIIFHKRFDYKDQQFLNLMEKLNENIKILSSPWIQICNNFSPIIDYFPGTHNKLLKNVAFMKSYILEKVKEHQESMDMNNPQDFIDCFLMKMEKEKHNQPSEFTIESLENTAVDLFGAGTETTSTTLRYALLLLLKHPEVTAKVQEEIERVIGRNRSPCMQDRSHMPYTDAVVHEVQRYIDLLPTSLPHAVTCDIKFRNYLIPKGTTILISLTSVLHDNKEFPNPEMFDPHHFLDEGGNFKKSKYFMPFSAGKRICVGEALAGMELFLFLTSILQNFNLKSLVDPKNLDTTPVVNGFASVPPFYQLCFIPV
Sequence of Cytochrome P450 2D6 (P10635 whole entry): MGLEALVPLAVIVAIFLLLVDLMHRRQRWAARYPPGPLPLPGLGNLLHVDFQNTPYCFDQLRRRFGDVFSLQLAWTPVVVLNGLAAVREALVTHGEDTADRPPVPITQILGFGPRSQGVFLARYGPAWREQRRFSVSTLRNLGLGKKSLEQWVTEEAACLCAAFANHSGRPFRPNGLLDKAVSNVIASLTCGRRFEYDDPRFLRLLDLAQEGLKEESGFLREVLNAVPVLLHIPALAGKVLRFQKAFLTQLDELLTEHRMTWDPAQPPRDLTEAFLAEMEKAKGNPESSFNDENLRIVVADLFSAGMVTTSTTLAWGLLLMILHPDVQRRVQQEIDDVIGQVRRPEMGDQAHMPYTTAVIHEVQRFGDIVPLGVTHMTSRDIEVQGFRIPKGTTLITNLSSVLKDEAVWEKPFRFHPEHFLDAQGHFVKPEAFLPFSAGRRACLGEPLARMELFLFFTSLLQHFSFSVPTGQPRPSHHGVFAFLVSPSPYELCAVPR
Sequence of Cytochrome P450 3A4 (P08684 whole entry): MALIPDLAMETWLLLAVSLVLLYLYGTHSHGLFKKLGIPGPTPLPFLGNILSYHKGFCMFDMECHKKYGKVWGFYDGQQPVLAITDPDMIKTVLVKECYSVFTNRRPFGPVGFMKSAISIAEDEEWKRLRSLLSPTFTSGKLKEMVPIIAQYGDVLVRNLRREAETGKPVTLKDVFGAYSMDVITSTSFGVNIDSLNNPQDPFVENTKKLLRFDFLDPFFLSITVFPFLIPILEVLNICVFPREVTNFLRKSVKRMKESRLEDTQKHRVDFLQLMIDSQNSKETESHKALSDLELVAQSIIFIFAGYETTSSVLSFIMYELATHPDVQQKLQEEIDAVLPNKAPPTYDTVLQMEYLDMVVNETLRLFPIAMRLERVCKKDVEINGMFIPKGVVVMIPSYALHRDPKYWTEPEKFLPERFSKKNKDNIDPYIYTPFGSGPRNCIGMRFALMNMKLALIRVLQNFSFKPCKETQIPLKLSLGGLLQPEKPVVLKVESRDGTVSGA

O=C(c1nc2c(C(F)(F)F)cc(-c3ccoc3)cn2c1Cl)N1CCN([C@H]2CC[C@@H](O)CC2)C(=O)C1
solubility [1]: > 500 µM | EC50 [2]: 0.15 µM | EC50 [3]: 0.3 µM | IC50 [4]: 0.25 µM

O=C(c1nc2c(C(F)(F)F)cc(-c3ccoc3)cn2c1Cl)N1CCC(c2ccccc2F)C1 (racemic)
solubility [1]: < 15 µM | EC50 [2]: 0.68 µM | EC50 [3]: 0.078 µM | IC50 [4]: 0.0054 µM

CN1CCN(C(=O)c2nc3c(C(F)(F)F)cc(-c4ccoc4)cn3c2Cl)CC1=O
solubility [1]: > 500 µM | EC50 [2]: 18 µM | EC50 [3]: 36 µM | IC50 [4]: 1.2 µM

O=C(c1nc2c(C(F)(F)F)cc(-c3ccoc3)cn2c1Cl)N1CCC(c2cccs2)CC1
EC50 [2]: 0.22 µM | EC50 [3]: 0.11 µM | IC50 [4]: 0.0053 µM

O=C(c1nc2c(C(F)(F)F)cc(-c3ccoc3)cn2c1Cl)N1CCC(N2CCOC2=O)CC1
AUC(0-t) at 24 h [5]: 700 ng·h/mL | bioavailability [6]: 60% | half-life [7]: 1.9 h | clearance [8]: 72 mL/min/kg | Vd [9]: 2.5 L/kg | solubility [1]: > 500 µM | inhibition (INH) [10]: Not Active | inhibition (INH) [11]: Not Active | inhibition (INH) [12]: Not Active | inhibition (INH) [13]: Not Active | inhibition (INH) [14]: Not Active | Drug metabolism [15]: Not Active | Drug metabolism [16]: Not Active | EC50 [2]: 0.0074 µM | EC50 [3]: 0.018 µM | IC50 [4]: 0.15 µM

O=C(c1nc2c(C(F)(F)F)cc(C3CC3)cn2c1Cl)N1CCN([C@H]2CC[C@H](O)CC2)C(=O)C1
bioavailability [17]: 65% | AUC(0-t) at 24 h [18]: 52000 ng·h/mL | Vd [19]: 0.9 L/kg | half-life [20]: 10 h | clearance [21]: 1.1 mL/min/kg | Ratio EC50 [22]: >100 | Ratio EC50 [23]: >100 | EC50 [24]: 0.001 µM | EC50 [25]: 0.001 µM | EC50 [26]: 0.001 µM | EC50 [27]: 0.027 µM | EC50 [28]: 0.038 µM | EC50 [29]: 0.053 µM | EC50 [30]: 0.8 µM | EC50 [31]: 0.2 µM | AUC(0-t) at 24 h [5]: 3800 ng·h/mL | bioavailability [6]: 98% | half-life [7]: 3 h | clearance [8]: 20 mL/min/kg | Vd [9]: 4.1 L/kg | solubility [1]: > 500 µM | inhibition (INH) [10]: Not Active | inhibition (INH) [11]: Not Active | inhibition (INH) [12]: Not Active | inhibition (INH) [13]: Not Active | inhibition (INH) [14]: Not Active | Drug metabolism [15]: Not Active | Drug metabolism [16]: Not Active | EC50 [2]: 0.00081 µM | EC50 [3]: 0.0054 µM | IC50 [4]: 0.06 µM

CC1(C)CN(C2CCN(C(=O)c3nc4c(C(F)(F)F)cc(-c5ccoc5)cn4c3Cl)CC2)C(=O)O1
solubility [1]: > 500 µM | EC50 [2]: 9.9 µM | EC50 [3]: 76 µM | IC50 [4]: 0.22 µM

O=C(c1nc2c(C(F)(F)F)cc(-c3ccoc3)cn2c1Cl)N1CCN([C@H]2CC[C@H](O)CC2)C(=O)C1
solubility [1]: > 500 µM | EC50 [2]: 0.0009 µM | EC50 [3]: 0.0097 µM | IC50 [4]: 0.043 µM

O=C(c1nc2c(C(F)(F)F)cc(-c3ccoc3)cn2c1Cl)N1CCN(c2ccccc2)CC1
EC50 [2]: 0.45 µM | EC50 [3]: 1.6 µM | IC50 [4]: 0.02 µM

[3H]CC([3H])(C)c1cc(C(F)(F)F)c2nc(C(=O)N3CCC(N4CCOC4=O)CC3)c(Cl)n2c1 (configuration not stated)
IC50 [4]: 0.03 µM

CC(C)c1cc(C(F)(F)F)c2nc(C(=O)N3CCC(N4CCOC4=O)CC3)c(Cl)n2c1
EC50 [2]: < 0.055 µM | EC50 [3]: < 0.055 µM | Kapp [32]: 30 nM
